Reference: the supplement of paper PMC10307832

Experiments:
Test in all cases: relative viability (nuclei count vs DMSO), 5 days (fraction); higher = more cells survive
[1] = test system: ABC-1
Procedure, shortened: (§1)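 Relative viability was taken as the ratio of nuclei in treated wells to nuclei in vehicle wells. Lung cancer cell lines in 1536-well plates received compounds by pin tool one day after seeding, either one drug alone or a fixed anchor-drug dose plus five library-drug doses (not always all listed) in √10 steps. Nuclei were counted on 4× images after 5 days of treatment, and values are medians of duplicate plates.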

[2] = test system: CAL-12T
Procedure, shortened: as §1

[3] = test system: COR-L 105
Procedure, shortened: as §1

[4] = test system: ChaGo-K-1
Procedure, shortened: as §1

[5] = test system: EMC-BAC-2
Procedure, shortened: as §1

[6] = test system: EPLC-272H
Procedure, shortened: as §1

[7] = test system: HCC-15
Procedure, shortened: as §1

[8] = test system: HCC-78
Procedure, shortened: as §1

[9] = test system: HOP-62
Procedure, shortened: as §1

[10] = test system: LXF-289
Procedure, shortened: as §1

[11] = test system: NCI-H1666
Procedure, shortened: as §1

[12] = test system: NCI-H1755
Procedure, shortened: as §1

[13] = test system: NCI-H1915
Procedure, shortened: as §1

[14] = test system: NCI-H1975
Procedure, shortened: as §1

[15] = test system: NCI-H2023
Procedure, shortened: as §1

[16] = test system: NCI-H2085
Procedure, shortened: as §1

[17] = test system: NCI-H2126
Procedure, shortened: as §1

[18] = test system: NCI-H3122
Procedure, shortened: as §1

[19] = test system: NCI-H322M
Procedure, shortened: as §1

[20] = test system: NCI-H358
Procedure, shortened: as §1

[21] = test system: NCI-H441
Procedure, shortened: as §1

[22] = test system: UMC-11
Procedure, shortened: as §1

## O=c1cc(N2CCOCC2)oc2c(-c3cccc4c3sc3ccccc34)cccc12 + O=C(CCCCCCC(=O)Nc1ccccc1)NO [Vorinostat] (partner 1 µM)
[1]; first compound 0.01 µM
  relative viability: 1.36
[1]; first compound 0.03162 µM
  relative viability: 1.58
[1]; first compound 0.1 µM
  relative viability: 1.31
[1]; first compound 0.3162 µM
  relative viability: 1.17
[1]; first compound 1 µM
  relative viability: 1.02
[2]; first compound 0.01 µM
  relative viability: 0.967
[2]; first compound 0.03162 µM
  relative viability: 0.828
[2]; first compound 0.1 µM
  relative viability: 0.727
[2]; first compound 0.3162 µM
  relative viability: 0.748
[2]; first compound 1 µM
  relative viability: 0.618
[3]; first compound 0.01 µM
  relative viability: 0.764
[3]; first compound 0.03162 µM
  relative viability: 0.788
[3]; first compound 0.1 µM
  relative viability: 0.899
[3]; first compound 0.3162 µM
  relative viability: 0.911
[3]; first compound 1 µM
  relative viability: 0.918
[4]; first compound 0.01 µM
  relative viability: 0.69
[4]; first compound 0.03162 µM
  relative viability: 0.785
[4]; first compound 0.1 µM
  relative viability: 0.578
[4]; first compound 0.3162 µM
  relative viability: 0.813
[4]; first compound 1 µM
  relative viability: 0.789
[5]; first compound 0.01 µM
  relative viability: 0.458
[5]; first compound 0.03162 µM
  relative viability: 0.512
[5]; first compound 0.1 µM
  relative viability: 0.533
[5]; first compound 0.3162 µM
  relative viability: 0.496
[5]; first compound 1 µM
  relative viability: 0.198
[6]; first compound 0.01 µM
  relative viability: 0.539
[6]; first compound 0.03162 µM
  relative viability: 0.4
[6]; first compound 0.1 µM
  relative viability: 0.54
[6]; first compound 0.3162 µM
  relative viability: 0.358
[6]; first compound 1 µM
  relative viability: 0.5
[7]; first compound 0.01 µM
  relative viability: 0.839
[7]; first compound 0.03162 µM
  relative viability: 0.775
[7]; first compound 0.1 µM
  relative viability: 0.858
[7]; first compound 0.3162 µM
  relative viability: 0.765
[7]; first compound 1 µM
  relative viability: 0.847
[8]; first compound 0.01 µM
  relative viability: 0.428
[8]; first compound 0.03162 µM
  relative viability: 0.406
[8]; first compound 0.1 µM
  relative viability: 0.44
[8]; first compound 0.3162 µM
  relative viability: 0.464
[8]; first compound 1 µM
  relative viability: 0.48
[9]; first compound 0.01 µM
  relative viability: 0.554
[9]; first compound 0.03162 µM
  relative viability: 0.775
[9]; first compound 0.1 µM
  relative viability: 0.58
[9]; first compound 0.3162 µM
  relative viability: 0.605
[9]; first compound 1 µM
  relative viability: 0.685
[10]; first compound 0.01 µM
  relative viability: 0.797
[10]; first compound 0.03162 µM
  relative viability: 0.789
[10]; first compound 0.1 µM
  relative viability: 0.693
[10]; first compound 0.3162 µM
  relative viability: 0.741
[10]; first compound 1 µM
  relative viability: 0.827
[11]; first compound 0.01 µM
  relative viability: 0.985
[11]; first compound 0.03162 µM
  relative viability: 1.04
[11]; first compound 0.1 µM
  relative viability: 1.19
[11]; first compound 0.3162 µM
  relative viability: 1.03
[11]; first compound 1 µM
  relative viability: 1.04
[12]; first compound 0.01 µM
  relative viability: 0.828
[12]; first compound 0.03162 µM
  relative viability: 0.775
[12]; first compound 0.1 µM
  relative viability: 0.793
[12]; first compound 0.3162 µM
  relative viability: 0.741
[12]; first compound 1 µM
  relative viability: 0.834
[13]; first compound 0.01 µM
  relative viability: 0.497
[13]; first compound 0.03162 µM
  relative viability: 0.596
[13]; first compound 0.1 µM
  relative viability: 0.521
[13]; first compound 0.3162 µM
  relative viability: 0.516
[13]; first compound 1 µM
  relative viability: 0.544
[14]; first compound 0.01 µM
  relative viability: 0.672
[14]; first compound 0.03162 µM
  relative viability: 0.69
[14]; first compound 0.1 µM
  relative viability: 0.733
[14]; first compound 0.3162 µM
  relative viability: 0.641
[14]; first compound 1 µM
  relative viability: 0.368
[15]; first compound 0.01 µM
  relative viability: 0.733
[15]; first compound 0.03162 µM
  relative viability: 0.76
[15]; first compound 0.1 µM
  relative viability: 0.786
[15]; first compound 0.3162 µM
  relative viability: 0.55
[15]; first compound 1 µM
  relative viability: 0.677
[16]; first compound 0.01 µM
  relative viability: 0.779
[16]; first compound 0.03162 µM
  relative viability: 0.783
[16]; first compound 0.1 µM
  relative viability: 0.755
[16]; first compound 0.3162 µM
  relative viability: 0.788
[16]; first compound 1 µM
  relative viability: 0.753
[17]; first compound 0.01 µM
  relative viability: 0.84
[17]; first compound 0.03162 µM
  relative viability: 0.751
[17]; first compound 0.1 µM
  relative viability: 0.668
[17]; first compound 0.3162 µM
  relative viability: 0.734
[17]; first compound 1 µM
  relative viability: 0.771
[18]; first compound 0.01 µM
  relative viability: 0.933
[18]; first compound 0.03162 µM
  relative viability: 1.02
[18]; first compound 0.1 µM
  relative viability: 1.04
[18]; first compound 0.3162 µM
  relative viability: 0.895
[18]; first compound 1 µM
  relative viability: 1.02
[19]; first compound 0.01 µM
  relative viability: 0.826
[19]; first compound 0.03162 µM
  relative viability: 0.92
[19]; first compound 0.3162 µM
  relative viability: 0.871
[19]; first compound 1 µM
  relative viability: 0.678
[20]; first compound 0.01 µM
  relative viability: 0.676
[20]; first compound 0.03162 µM
  relative viability: 0.619
[20]; first compound 0.1 µM
  relative viability: 0.75
[20]; first compound 0.3162 µM
  relative viability: 0.702
[20]; first compound 1 µM
  relative viability: 0.689
[21]; first compound 0.01 µM
  relative viability: 0.731
[21]; first compound 0.03162 µM
  relative viability: 0.704
[21]; first compound 0.1 µM
  relative viability: 1.09
[21]; first compound 0.3162 µM
  relative viability: 0.829
[21]; first compound 1 µM
  relative viability: 0.724
[22]; first compound 0.01 µM
  relative viability: 0.386
[22]; first compound 0.03162 µM
  relative viability: 0.368
[22]; first compound 0.1 µM
  relative viability: 0.365
[22]; first compound 0.3162 µM
  relative viability: 0.429
[22]; first compound 1 µM
  relative viability: 0.311
